According to patent US11286414B2, “Sodium nitroprusside and nitrate metabolic inhibition of sulfate-reducing microbes to control sulfide production” (UTI Limited Partnership, priority 2017, dated 2022):

Key:
[1] = tested on: SRB consortia; experiment: Souring control in sand-packed bioreactors containing heavy oil; format: cell-based, SRB consortia from MHGC produced water (18PW)
[2] = tested on: 4PW SRB consortia; experiment: Comparison of SNP with other biocides on souring; format: cell-based, SRB consortia enriched from 4PW; details: 10 ppm added at start of growth, one month

O=[N+]([O-])[O-].[Na+] [nitrate, sodium nitrate]
effect on sulfide concentration in the effluent ([1]; injection of 2 PV CSBK-S with 85 ppm (1 mM) or 170 ppm (2 mM) nitrate): did not affect the sulfide concentration in the effluent
sulfate reduction ([1]; injection of 2 PV of 340 ppm (4 mM) nitrate): inhibition of sulfate reduction was observed
concentration that inhibited sulfate reduction / controlled souring when used singly ([1]; oil as electron donor): 340 ppm

tetrakishydroxymethyl phosphonium sulfate [THPS]
metabolic activity and growth of SRB (sulfide, sulfate, lactate concentrations) [2]: not effective at this low dosage

O=CCCCC=O [Glut, glutaraldehyde]
metabolic activity and growth of SRB (sulfide, sulfate, lactate concentrations) [2]: not effective at this low dosage

benzalkonium chloride [BAC]
metabolic activity and growth of SRB (sulfide, sulfate, lactate concentrations) [2]: not effective at this low dosage

cocodiamine
metabolic activity and growth of SRB (sulfide, sulfate, lactate concentrations) [2]: not effective at this low dosage
